These results are taken from article PMC8380212, “^18F-labeled tracers targeting fibroblast activation protein” (EJNMMI Radiopharmacy and Chemistry, 2021).

Series [1] deals with NSCLC primary tumor and metastases. Kind of series: Clinical PET/CT imaging of a patient with NSCLC. The note with it: for SUVmean / SUVmax: primary tumor and metastases; for SUVmax: 323 MBq i.v. The class given is in vivo, human. On the procedure:
[^18F]AlF-FAPI-74 (16.2 GBq/µmol at time of injection) was applied intravenously (20 nmol; 323 MBq) to a patient with NSCLC. The PET/CT scans were performed 1 and 3 h post tracer administration with a Biograph mCT Flow™ PET/CT-Scanner (Siemens Medical Solutions). The parameters used were slice thickness of 5 mm, increment of 3–4 mm, soft-tissue reconstruction kernel and care dose. After CT scanning, a whole-body PET was acquired in 3D (matrix 200 × 200) in FlowMotion™ with 0.7 cm/min. The emission data were corrected for random, scatter and decay. Reconstruction was conducted with an ordered subset expectation maximization (OSEM) algorithm with 2 iterations/21 subsets and Gauss-filtered to a transaxial resolution of 5 mm at full-width half-maximum. Attenuation correction was performed using the low-dose non-enhanced CT data. The quantitative assessment of standardized uptake values (SUV) was done using a region of interest technique.

The next series can be described thus: Serum stability assay. The class given is in vitro ADME, human. Conditions: 37 °C, 10 min to 4 h, radio-HPLC. On the procedure: Five MBq of purified [^18F]AlF-FAPI-74 (20 GBq/µmol) were dried under reduced pressure and the residue incubated in 300 µL human serum (Sigma Aldrich Germany) at 37 °C. After different time intervals (10 min to 4 h) 20 µL samples were precipitated with 40 µL acetonitrile. The stability of the labeled peptide was monitored by radio-HPLC of the supernatant. A gradient of 0% to 30% acetonitrile in 10 min was used for enhanced separation performance.

For `N#C[C@@H]1CCCN1C(=O)CNC(=O)c1ccnc2ccc(OCCCN3CCN(C(=O)CN4CCN(CC(=O)O)CCN(CC(=O)O)CC4)CC3)cc12` [FAPI-74], the “excretion route in patient” value in series [1] (non-target tissues and blood pool) is on record as “excreted predominantly via the kidneys”. For the same molecule, the “SUV in normal tissues” value in series [1] (normal tissues of the patient) is “almost zero”. Besides, the SUVmean came out at 3.3 ± 0.6 in series [1] (1 h) and 2.75 ± 0.5 in series [1] (3 h). Besides, the results for the SUVmax in series [1] (1 h) and in series [1] (3 h) were 6.5 ± 1.1 and 5.6 ± 0.7, respectively. The “stability in human serum” value in the series “Serum stability assay” (listed as 18F-labeled FAPI-74) was “No degradation products were observed”; in the series “Serum stability assay” (listed as [^18F]AlF-FAPI-74), “no degradation of the tracer or instability of the [^18F]AlF-NOTA complex”.
